From US11246912B2, “Methods for treating and diagnosing metastatic liver cancer” (HADASIT MEDICAL RESEARCH SERVICES AND DEVELOPMENT LTD., priority 2017, dated 2022)
No end group written: not given here.

What was measured:
CT26 cells = test: Direct cell count, CT26 cells; type: cell-based
normal kidney cells = test: XTT assay on normal kidney cells; type: cell-based; details: kidney cells 5×10^4 cells/well
Experimental: (§1) FIGS. 10A-10C are vertical bar graphs showing the specificity of adropin inhibition on proliferating cancer cells. No detectable effect of adropin treatment was observed (using XTT assay) on normal (A) fibroblasts (1×10^4 HF cells/well), (B) kidney cells (5×10^4 cells/well), and (C) hepatocytes (5×10^4 HepRG cells/well) in-vitro.
(§2) All cell lines were maintained in DMEM medium supplemented with 10% FCS, 1% Penicillin/Streptomycin and 1% L-Glutamine in 10 cm^2 plates in 5% humidified CO2 at 37° C. Twice a week cells were passaged. Detaching was done for MC-38, CT26 and normal cells by incubation with 1 ml trypsin for 2-3 min and then seeded (usually 1:10) in 10 ml DMEM supplemented medium which stopped the enzymatic process of trypsin. EL4 cells are grown in suspension, thus not requiring this stage. […] Cells were counted in a hemocytometer under a light microscope (magnification×10) immediately after the addition of Trypan blue solution (1:1 ratio). […] On the following day, the XTT reaction solution was added to the wells according to the cell proliferation kit (XTT based; Biological Industries, Israel) and the plate was read 2, 3 and 4 hours following, using a Magellan for Infinite F50 (Tecan, Switzerland) microplate reader at 450 nm. […]

hepatic adropin RNA = test: Hepatic adropin RNA levels after adropin injection (qRT-PCR); type: in vivo, mouse
Experimental: FIG. 14 is a vertical bar graph showing the dose effects of a single adropin administration (i.p.) at the indicated doses (0 (naïve), 0.01 mg, 0.05 mg and 0.001 mg) on hepatic adropin RNA levels (measured by qRT-PCR). Each group comprised 4 mice.
FIG. 15 is a vertical bar graph showing the efficacy of different adropin routes of administration on hepatic adropin RNA in naïve mice (measured by qRT-PCR). Adropin was injected at a dose 0.01 mg. Naïve, non-injected; IP, intraperitoneal injection; SC, subcutaneous injection; IV, intravenous injection.
(§3) C57BL/6 mice were given a single injection of adropin at different concentrations and sacrificed at varied times afterward. […] The lower concentration induced higher effect.
The inventors then pursued optimization of adropin administration. With this respect, different doses of adropin were administered to mice and hepatic adropin RNA levels were quantified (FIG. 14). […] Reduction in the dose of the administered adropin led to a reduction in the administered adropin effect.
Further, the inventors examined whether the administration route of the adropin affects the hepatic adropin mRNA levels (FIG. 15).

[1] = Adropin stability under storage conditions by LC-MS; type: physicochemical
Text: The inventors then examined the stability of adropin in vitro. For that, the inventors had set up a liquid chromatography mass spectrometry (LC-MS) assay and used it to examine the stability of adropin under different storage conditions (see Table 1). […] Contrary, approximately 50% degradation were observed when the dissolved peptide was stored at a room temperature for one month.

hepatic adropin protein = test: Hepatic adropin protein levels after single adropin injection; type: in vivo, mouse; details: C57BL/6 mice, single i.p. injection, different doses; lasting for two days
Experimental: FIGS. 12A-12B are vertical bar graphs showing the effect of single adropin polypeptide injection on endogenous hepatic adropin RNA (A) and (B) protein levels at the indicated doses and timing following i.p. injection (n represents number of mice per group).
Adropin levels were determined using the ELISA Kit (Cloud-Clone Corp., Texas, USA) for liver or serum mice samples according to the manufacturer's protocol. The results were analyzed using Magellan for Infinite F50 (Tecan, Switzerland).
as §3

[2] = tested on: MC-38 (colorectal cancer cell line); test: XTT cell-proliferation test, MC-38 cells; type: cell-based, murine
Experimental: (§4) All cell lines were maintained in DMEM medium supplemented with 10% FCS, 1% Penicillin/Streptomycin and 1% L-Glutamine in 10 cm^2 plates in 5% humidified CO2 at 37° C. Twice a week cells were passaged. Detaching was done for MC-38, CT26 and normal cells by incubation with 1 ml trypsin for 2-3 min and then seeded (usually 1:10) in 10 ml DMEM supplemented medium which stopped the enzymatic process of trypsin. EL4 cells are grown in suspension, thus not requiring this stage. For the experiments, after the trypsin detachment, 1 ml of cells was transferred into 13 ml medium and then the cells were centrifuged (1,400 rpm, 10 min, room temperature (RT)) and resuspended in 1 ml of fresh medium (for in vitro experiments) or sterile PBS×l (for mouse injections in vivo). Cells were counted in a hemocytometer under a light microscope (magnification×10) immediately after the addition of Trypan blue solution (1:1 ratio). Non-stained cells were considered viable. For in-vivo mouse injections, the cells were diluted in sterile PBS xl to a final concentration of 5×10^4 for MC-38 cells or 5×10^5 for EL-4 cells per 100 μl. For XTT in vitro experiments, the cells were seeded in a 96-well plate (100 μl per well) in the morning and in the afternoon (once the cells adhered) the medium was changed according to the treatment (DMEM, Adropin 25 ng/ml, Adropin 50 ng/ml or Adropin 100 ng/ml). On the following day, the XTT reaction solution was added to the wells according to the cell proliferation kit (XTT based; Biological Industries, Israel) and the plate was read 2, 3 and 4 hours following, using a Magellan for Infinite F50 (Tecan, Switzerland) microplate reader at 450 nm.
To test adropin's direct effects on MC-38 cells, XTT cell-proliferation tests were performed with adropin added to the medium at different concentrations (25-100 ng/ml).

[3] = tested on: CT26 colorectal cancer cell line; test: XTT metabolic assay, CT26 cells; type: cell-based; details: CT26 seeded 5×10^3 cells/well
Experimental: FIGS. 9A-9D are vertical bar graphs showing the inhibitory effect of adropin on colorectal cancer cells.
as §4, with “For in-vivo mouse injections, the cells were diluted in sterile PBS xl to a final concentration of 5×10^4 for MC-38 cells or 5×10^5 for EL-4 cells per 100 μl. For XTT in vitro experiments, the cells were seeded in a 96-well plate (100 μl per well) in the morning and in the afternoon (once the cells adhered) the medium was changed according to the treatment (DMEM, Adropin 25 ng/ml, Adropin 50 ng/ml or Adropin 100 ng/ml).” left out

MC38 cells = test: Direct cell count, MC38 cells; type: cell-based, murine; details: all tested seeding concentrations, up to 5×10^4 cells/well; compared with XTT
Experimental: as §4, with “For in-vivo mouse injections, the cells were diluted in sterile PBS xl to a final concentration of 5×10^4 for MC-38 cells or 5×10^5 for EL-4 cells per 100 μl. For XTT in vitro experiments, the cells were seeded in a 96-well plate (100 μl per well) in the morning and in the afternoon (once the cells adhered) the medium was changed according to the treatment (DMEM, Adropin 25 ng/ml, Adropin 50 ng/ml or Adropin 100 ng/ml).” left out, “nm. […]” for “nm.”

[4] = Adropin stability during incubation with mouse serum (LC-MS); type: in vitro ADME; details: 24 hours incubation with mouse serum; read-out: adropin level remaining
Experimental: FIG. 11 is a graph showing adropin dynamic stability during incubation with mouse serum as measured with liquid chromatography mass spectrometry (LC-MS).
The next step was to assess the stability of adropin during incubation with human or mouse serum.

[5] = tested on: MC-38 colorectal liver metastases; test: MC-38 colorectal liver metastases model (intra-splenic cell injection) with adropin injection; type: in vivo, mouse
Experimental: Metastases model—In order to obtain metastases in the liver, a well-documented model was employed using the cancer cell lines derived from C57B1/6 mice—MC-38 or EL-4 cells. The cancer cells were injected intra-splenic into MDR2-Knockout (KO) and C57B1/6 mice at two and five months of age, and after 5 minutes the spleen was removed to prevent the development of a primary tumor in the spleen. Fourteen days later, the mice were euthanized, and their livers were removed in a similar manner to that described above.
Adropin injection—The adropin peptide (corresponding to amino acids at positions 34-76) was purchased from ChinaPeptides Co., Ltd. with a purity of >95%. The peptide was injected to mice according to two protocols. For the first protocol, termed ‘short adropin treatment’, adropin was injected at 450 nmole/kg in saline (80 μl injected), i.p., twice daily, for the five days surrounding the MC-38 CRC cell injection. For the second protocol, termed ‘prolonged adropin treatment’, 450 nmole/kg of adropin was injected i.p. (100 μl injected) once every three days from the morning of MC-38 cell injection throughout the experiment until the mice were sacrificed fourteen days later (a total of five injections).
Formalin-fixed paraffin-embedded tissue slides were stained with hematoxylin-eosin (H&E) staining and analyzed under a microscope using Cellsens Entry software (Olympus, Japan). The number and size of metastases larger than 4,000 μm^2 were recorded. The number of metastases was normalized relatively to the size of the liver sample analyzed.
A synthetic peptide of adropin (34-76 aa, purity: >95%) was then used to validate the findings regarding adropin's role in protecting the liver from metastases. The peptide, or saline as control, was injected (450 nmol/kg/i.p.) to mice during the week of cancer cell injection (2 days before, day of tumor cell injection and the following two days). A significant decrease of over 2.5-fold in the metastases size was observed, in the adropin-injected mice (FIG. 4B).
A further protocol was employed where adropin was injected every 3 days throughout the entire experiment period (14 days), starting from the morning of the cancer cell injection.
The mice were injected every two days with adropin (0.01 or 0.05 mg/i.p. injection) or saline starting from the morning of the MC-38 cell injection until being sacrificed two weeks later.

[6] = tested on: hepatocytes (HepRG cells); test: XTT assay on normal hepatocytes; type: cell-based; details: 5×10^4 HepRG cells/well
Experimental: as §1, §2

[7] = tested on: normal fibroblasts (HF cells); test: XTT assay on normal fibroblasts; type: cell-based; details: 1×10^4 HF cells/well
Experimental: as §1, §2

[8] = adropin 450 nmol/kg i.p., short treatment, vs saline
[9] = adropin 0.01 or 0.05 mg/i.p. injection every two days for two weeks, C57BL/6 mice
[10] = prolonged adropin treatment, 450 nmol/kg i.p. every 3 days for 14 days

CHSRSADVDSLSESSPNSSPGPCPEKAPPPQKPSHEGSYLLQP (cysteines drawn unpaired) [adropin]
inhibition by direct cell counts (CT26 cells): same trends of inhibition
effect of adropin treatment on normal cells (XTT) (normal kidney cells): No detectable effects
hepatic adropin RNA levels (hepatic adropin RNA; C57BL/6 mice, single i.p. injection, different doses, lasting for two days): large increase
hepatic adropin mRNA levels (hepatic adropin RNA; intraperitoneal injection, 0.01 mg, naïve mice): greatest increase
hepatic adropin mRNA levels (hepatic adropin RNA; intravenous injection, 0.01 mg, naïve mice): substantial increase
hepatic adropin mRNA levels (hepatic adropin RNA; single i.p. dose of 0.001 mg): did not induce such an effect
hepatic adropin mRNA levels (hepatic adropin RNA; single i.p. dose of 0.005 mg): some increase
hepatic adropin mRNA levels (hepatic adropin RNA; single i.p. dose of 0.01 mg): substantially increase
hepatic adropin mRNA levels (hepatic adropin RNA; subcutaneous injection, 0.01 mg, naïve mice): did not seem to increase
Concentration obtained by LC-MS ([1]; 4° C. for 1 month): 0.084 µg/mL
Concentration obtained by LC-MS ([1]; Freeze/Thaw cycle × 3 (−20° C. to RT once a week)): 0.092 µg/mL
Concentration obtained by LC-MS ([1]; Room temperature (RT) for 1 month): 0.055 µg/mL
degradation of dissolved peptide ([1]; room temperature for one month): approximately 50%
Concentration obtained by LC-MS ([1]; −20° C. for 1 month): 0.095 µg/mL
stability dissolved in saline ([1]; −20° C. or −80° C., up to one month): highly stable
Concentration obtained by LC-MS ([1]; −80° C. and then 4° C. for 1 week): 0.099 µg/mL
Concentration obtained by LC-MS ([1]; −80° C. and then RT for 1 week): 0.094 µg/mL
Concentration obtained by LC-MS ([1]; −80° C. and then −20° C. for 1 week): 0.1 µg/mL
Concentration obtained by LC-MS ([1]; −80° C. for 1 month): 0.095 µg/mL
hepatic adropin protein levels (hepatic adropin protein): large increase
inhibition of proliferation (XTT metabolic assay, FIG. 9A) ([2]; MC38 seeded 5×10^3 cells/well): significant inhibition
reduction in cell number (XTT) ([2]; adropin 100 ng/ml, seeded 1×10^3 cells/well): significant reduction in cell number
reduction in cell number (XTT) ([2]; adropin 100 ng/ml, seeded 5×10^3 cells/well): significant reduction in cell number
proliferation levels (XTT) ([2]; adropin 25-100 ng/ml in medium): decrease in the proliferation levels of the colorectal cancer cells in a dose dependent manner
reduction in cell number (XTT) ([2]; adropin 25 or 100 ng/ml, seeded 5×10^4 cells/well): No significant reduction
inhibition of proliferation (XTT metabolic assay, FIG. 9C) [3]: significant inhibition
inhibitory effect on the number of cells (direct cell count) (MC38 cells): even higher inhibitory effect
remaining at 24 h [4]: 55%
BrdU levels in the hepatic parenchyma [5, 8]: no differences
number of BrdU stained cells in the tumors [5, 8]: decrease in the number of BrdU stained cells
number of hepatic metastases [5, 9]: significantly improved effects
size of hepatic metastases [5, 9]: significantly improved effects
number of liver metastases [5, 10]: reduced upon adropin injections (marginally significant)
size of liver metastases [5, 10]: reduced upon adropin injections (marginally significant)
decrease in the metastases size ([5]; short adropin treatment, 450 nmol/kg i.p., 2 days before, day of and two days after MC-38 cell injection, vs saline): over 2.5 fold
effect of adropin treatment on normal cells (XTT) [6]: No detectable effects
effect of adropin treatment on normal cells (XTT) [7]: No detectable effects
